Earlier results on one molecule are cited in US20030129188A1, “Integrin targeting compounds” (The Scripps Research Institute, priority 2001, published 2003).

For this series the following is noted: more potent than doxorubicin itself.

For `COc1cccc2c1C(=O)c1c(O)c3c(c(O)c1C2=O)C[C@@](O)(C(=O)CO)C[C@@H]3O[C@H]1C[C@H](N2C=CCC2)[C@H](O)[C@H](C)O1` [2-pyrrolinodoxorubicin], the “potency relative to doxorubicin” value is given as 500-1000 times.
